In US8598209B2, “P2X3, receptor antagonists for treatment of pain” (Merck Sharp & Dohme Corp., priority 2008, dated 2013) one finds IC50 data, which are given here for four compounds.

One may read the IC50 as the concentration needed to halve the response being measured.

The assay deals with T1, human P2X3 (Homo sapiens, UniProt P56373).
T1 construct: expressed in transfected cells
T1 sequence (P56373 1-397): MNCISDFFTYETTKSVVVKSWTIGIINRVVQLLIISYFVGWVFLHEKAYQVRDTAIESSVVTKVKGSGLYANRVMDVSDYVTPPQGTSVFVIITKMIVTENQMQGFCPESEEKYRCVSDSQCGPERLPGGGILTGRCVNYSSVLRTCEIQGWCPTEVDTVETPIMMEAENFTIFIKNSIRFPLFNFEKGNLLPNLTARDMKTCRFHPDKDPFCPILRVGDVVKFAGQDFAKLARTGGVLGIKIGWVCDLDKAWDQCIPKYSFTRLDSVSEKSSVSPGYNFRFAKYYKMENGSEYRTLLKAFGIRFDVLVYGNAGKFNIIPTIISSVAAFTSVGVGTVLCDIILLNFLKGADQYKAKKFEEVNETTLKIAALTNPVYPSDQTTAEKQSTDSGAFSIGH
In words: Intracellular Calcium Measurement to Assess Antagonist Affinity (FLIPR, Fluo-4), human P2X3 cells. The class given is cell-based. Particulars: Intracellular Calcium Measurement to Assess Antagonist Affinity assay; agonist α,β-meATP at EC50. The source says:
Generation of a Human P2X3 and P2X2/3 Stable Cell Line—
Human P2X3 receptor cDNA (Accession number NM_002559) was subcloned as a 5′XhoI and 3′HindIII fragment into the expression vector pcDNA5/FRT (Invitrogen). Human P2X2 receptor cDNA (Accession number NM_174873) was subcloned as a 5′EcoRI and 3′NotI fragment into the expression vector pIRESneo2 (BD Biosciences Clontech). The human P2X3 expression construct was transfected using Lipofectamine 2000 (Invitrogen) into Flp-in—293 cells (Invitrogen) according to the manufacturer's directions. Cells positive for flp-mediated recombination of […] P2X3 were selected using 150 μg/ml hygromycin. The stable human P2X3 cell line was co-transfected with the human P2X2 expression construct using Lipofectamine 2000 as above and co-transfected cells selected using […] hygromycin and 1 mg/ml G418. The stable P2X3 cell line was propagated in DMEM, 10% FBS, 100 μg/ml hygromycin, and 100 units/ml penicillin and 100 μg/ml streptomycin, and maintained at 37° and 95% humidity. The stable P2X2/3 cell line was propagated as above with the addition of 500 μg/ml G418.
Intracellular Calcium Measurement to Assess Antagonist Affinity—
A fluorescent imaging plate reader (FLIPR; Molecular Devices) was used to monitor intracellular calcium levels using the calcium-chelating dye Fluo-4 (Molecular Probes). The excitation and emission wavelengths used to monitor fluorescence were 488 nm and 530 nm, respectively. Cells expressing either human P2X3 or human P2X2/3 were plated at a density of 20,000 cells/well (20 μl/well) in 384-well black-walled plates approximately 20 hours before beginning the assay. On the day of the assay 20 μl of loading buffer (Hank's balanced salt solution, 2.5 mM CaCl2, 20 mM HEPES, 0.1% BSA, 2.5 mM probenecid, TR-40, Fluo-4, and 138 mM NMDG substituted for NaCl) is added and cells dye-loaded for 60 min in the dark at room temperature. Ten minutes prior to adding agonist, the antagonist was added in a volume of 10 μl and allowed to incubate at room temperature. During this period fluorescence data is collected at 3 sec intervals followed by 10 sec intervals. The agonist, α,β-meATP, is added at a 6× concentration ([α,β-meATP]final=EC50). Following agonist addition fluorescence was measured at 5 sec intervals and analyzed based on the increase in peak relative fluorescence units (RFU) compared to the basal fluorescence. Peak fluorescence was used to determine the inhibitory effect at each concentration of antagonist by the following equation: % Inhibition=100*(1−((RFU(drug)−RFU(control))/(RFU(DMSO only)−RFU(control)))) In vitro Electrophysiological Assay—
In general terms: Calcium assays in cells follow changes in intracellular calcium, usually with a dye or a luminescent sensor.
On to `C[C@@H](NC(=O)c1cc(-c2ccc(F)cc2F)nc(C(C)(C)O)c1)c1ccc(C(F)(F)F)[n+]([O-])c1` [Example 1.62, 2-(2,4-Difluorophenyl)-6-(1-hydroxy-1-methylethyl)-N-{(1R)-1-[1-oxido-6-(trifluoromethyl)pyridin-3-yl]ethyl}isonicotinamide], for which the half-maximal inhibitory concentration (IC50) was determined as 23 nM.
To `Cc1ccc(-c2cc(C(=O)N[C@@H](C)c3nnc[nH]3)nc(-c3ccc(C)cc3)n2)cc1` [Example 2.1] belongs 165 nM; to `Cc1ccc(-c2cc(C(=O)N[C@H](C)c3nc(C)no3)cnc2OC(C)C)cc1` [Example 3.22], 42 nM.
To `Cc1noc([C@@H](C)NC(=O)c2cc(-c3ccc(F)cc3)c(=O)n(C(C)C)c2)n1` [Example 5.61, 5-(4-fluorophenyl)-1-isopropyl-N-[(1R)-1-(3-methyl-1,2,4-oxadiazol-5-yl)ethyl]-6-oxo-1,6-dihydropyridine-3-carboxamide] belongs 48 nM.
